From patent US4798807A, “Monoclonal antibodies and method for detecting dioxins and dibenzofurans” (priority 1986, dated 1989) come the findings set out here.

The structures appear in SMILES notation. “Also recorded” adds a separate entry of the source. Where only a bound is given, the exact number is not on record here.

The target in one test is monoclonal antibody DD-6. As to the kind of experiment: Competition ELISA with monoclonal antibody DD-6. Type of test: binding, Biozzi mice. To be noted: competitor vs monoclonal antibody DD-6; plate coated with A-triCDD-RSA. How it is done: (§1) In this case the hybridomas were then screened for their ability to distinguish A-triCDD-BSA and A-triCDD-RSA from BSA and RSA. On the basis of this initial screen about 25 stable, antibody-producing colonies were isolated, subcloned, and frozen. The remaining clones were again screened for their abilities to recognize free TCDD in suspension. Experimentally, on the order of 10-100 nanograms of TCDD in hexane was dried, 0.5 ml of saline with BSA (1 mg/ml) was added and sonificated for 2 hrs. […] Identical procedures were followed for other dioxin isomers. A dilution series in microtiter plate wells was then made with the suspended TCDD, antibody adde, and the competition ELISA completed. Competition ELISA test procedures are discussed in detail in the following reference: Butt, W. R. (1984) "Practical Immunoassay: The State of the Art", Marcel Dekker, Inc., N.Y., N.Y.
(§2) A large part of the success that we have had in characterizing the binding specificities of our monoclonal antibodies comes from having developed a reliable competition ELISA protocol. Our preferred assay starts from stock solutions at 10 ppm in hexane of the various compounds listed in Table I. 10 μl of hexane solution is aliquoted into a small vial, evaporated under a stream of nitrogen gas, and 500 μl of a 1 mg/ml solution of BSA in phosphate buffered saline with 0.1% BSA is added. The vial is capped and placed in an ultrasonic cleaning waterbath for two hours. Two hours of sonification gives a more reproducible assay than does an hour. During the sonification, the hexane appears to evaporate completely, and one is left with an aqueous solution containing the dioxin. Microtiter plates coated with A-triCDD-RSA are blocked with a three percent solution of ovalbumin and a two-fold dilution series of sonificated dioxin-BSA is then made, covering the range 100 ppb-0.1 ppb. In each well of the plate 100 μl of the sonificated dioxin-BSA solution is mixed with n equal volume of antibody. The antibody partitions between the dioxin adsorbed to the BSA, and the A-tri-CDD-RSA on the plate.
(§3) A-TriCDD-RSA was adsorbed onto the surface of the wells of a microtiter plate. The various competitors listed were suspended in saline containing bovine serum albumin (BSA). These solutions were made by sonificating 10 μl of dioxin solution in hexane with 500 μl of saline-BSA. A dilution series of these dioxin-BSA solutions was then made covering the range of 100-0.2 ppb, and placed in the microtiter plate wells. An equal volume of DD-1 monoclonal antibody was then added, and allowed to react for 1 hour. Tne antibody binds either to the A-TriCDD-RSA on the plate or the dioxin in solution. After the hour, the solution phase is removed, the plate washed, and it is reincubated for an hour with peroxidase-conjugated goat-anti-mouse-immunoglobulins. A second washing is then done, and substrate (ABTS) added to the peroxidase. The enzyme-antibody conjugate and substrate function as a "developer", allowing the visualization of the DD-1 bound to the A-triCDD-RSA on the plate. Results are then expressed as a fraction of the response in wells with no competitor. […] At about 20 ppb of 2,3,7,8-TCDD the relative ELISA response is half of control, meaning that half the DD-1 antibody bound to the solution phase dioxin and half bound to the A-triCDD-RSA on the plate. For 1,2,3,7(8)-TCDD, 50% inhibition occurs at about 4 ppb, indicating the DD-1 prefers 1,2,3,7(8)-TCDD to 2,3,7,8-TCDD.
(§4) The FIGURE and Table II show representative competition data using several chlorinated compounds as competitors. From such data, one can determine the concentration required to inhibit antibody binding by 50% (I50). Table II lists the I50 for all compounds tested with the antibodies. In reporting these values, factors of two are about the limit of significance. […] The binding specificities of these antibodies are highly desirable, since they prefer the most toxic of the dioxin and dibenzofuran isomers.
(In general: An ELISA detects its analyte on a solid surface through an enzyme-linked reagent.)

Test [1] deals with monoclonal antibodies DD-1, DD-3, DD-4, DD-5 and DD-6. As to the kind of experiment: Competition ELISA, statements for all antibodies together. Type of test: binding, BALB/c and Biozzi mice. To be noted: for reactivity of all antibodies with competitor: up to the highest concentration tested (100 ppb). How it is done: as §1, §2, §3, §4
Another test addresses monoclonal antibody DD-1. The test is described as follows: Competition ELISA with monoclonal antibody DD-1. Type of test: binding, Biozzi mice. To be noted: for I50 (inhibits antibody binding by 50%): competitor vs monoclonal antibody DD-1, plate coated with A-triCDD-RSA. As to the method:
as §1, §2, §3, §4

The target of another test is monoclonal antibody DD-3. The test is described as follows: Competition ELISA with monoclonal antibody DD-3. Type of test: binding, BALB/c mice. To be noted: competitor vs monoclonal antibody DD-3; plate coated with A-triCDD-RSA. As to the method:
as §1, §2, §3, §4

The target of a further test is monoclonal antibody DD-4. The test is described as follows: Competition ELISA with monoclonal antibody DD-4. Type of test: binding, BALB/c mice. To be noted: competitor vs monoclonal antibody DD-4; plate coated with A-triCDD-RSA. As to the method:
as §1, §2, §3, §4

The target of a further test is monoclonal antibody DD-5. As to the kind of experiment: Competition ELISA with monoclonal antibody DD-5. The test is classed as binding, Biozzi mice. To be noted: competitor vs monoclonal antibody DD-5; plate coated with A-triCDD-RSA. As to the method:
as §1, §2, §3, §4

For the compound `Clc1c(Cl)c(Cl)c2c(oc3c(Cl)c(Cl)c(Cl)c(Cl)c32)c1Cl` [Octachloro-DBF], the “I50 (inhibits antibody binding by 50%)” value is on record as above 200 ng on monoclonal antibody DD-6; above 200 ng on monoclonal antibody DD-1; above 200 ng on monoclonal antibody DD-3; above 200 ng on monoclonal antibody DD-4; above 10 ng at monoclonal antibody DD-5. Also, in test [1], the “reactivity of all antibodies with competitor” value is given as “either do not react or react only marginally”.

As to `Clc1c(Cl)c(Cl)c2c(c1Cl)Oc1c(Cl)c(Cl)c(Cl)c(Cl)c1O2` [Octachloro-DD, octachlorodibenzodioxin], the “I50 (inhibits antibody binding by 50%)” value on monoclonal antibody DD-6 is reported as above 200 ng; at monoclonal antibody DD-1, above 200 ng; on monoclonal antibody DD-3, above 200 ng; on monoclonal antibody DD-4, above 200 ng; at monoclonal antibody DD-5, above 10 ng. In addition, the “reactivity of all antibodies with competitor” value in test [1] was “either do not react or react only marginally”. The “reaction of DD-1 with competitor” value in the test on monoclonal antibody DD-1 (FIGURE, DD-1, 100-0.2 ppb) is “does not react”.

In the case of `Clc1cc2c(cc1Cl)Oc1cc(Cl)c(Cl)cc1O2` [2,3,7,8-TCDD, 2,3,7,8-tetrachlorodibenzo-p-dioxin], the “I50 (inhibits antibody binding by 50%)” value on monoclonal antibody DD-6 was 6 ng; at monoclonal antibody DD-1 it was 1 ng; at monoclonal antibody DD-3 it was 3 ng; on monoclonal antibody DD-4, 5 ng; on monoclonal antibody DD-5, 0.5 ng. In test [1], the “affinity / recognition by all antibodies” value was “slightly less affinity; also recorded: recognize”. The “concentration at which 50% inhibition occurs (relative ELISA response half of control)” value with monoclonal antibody DD-1 (FIGURE, DD-1, competitor in saline-BSA, dilution series 100-0.2 ppb) is “about 20 ppb”.

Regarding `Clc1cc2oc3cc(Cl)c(Cl)cc3c2cc1Cl` [2,3,7,8-TCDBF], the “I50 (inhibits antibody binding by 50%)” value on monoclonal antibody DD-6 amounted to 0.5 ng; at monoclonal antibody DD-1, 0.65 ng; at monoclonal antibody DD-3, 0.9 ng; at monoclonal antibody DD-4, 5 ng; on monoclonal antibody DD-5 it was 1 ng. Moreover, the “affinity / recognition by all antibodies” value in test [1] is given as “slightly less affinity”.
